Measured values taken from ChEMBL document CHEMBL4610029, “Essential structure of orexin 1 receptor antagonist YNT-707, part V: Structure-activity relationship study of the substituents on the 17-amino group” (Bioorg Med Chem Lett, 2020).

target: T1, Orexin/Hypocretin receptor type 1 (Homo sapiens, UniProt O43613); experiment: Antagonist activity at OX1R (unknown origin) assessed as inhibition of orexin A-induced intracellular Ca2+ release by cell-based assay; type: functional; details: not given
T1 sequence (O43613 whole entry): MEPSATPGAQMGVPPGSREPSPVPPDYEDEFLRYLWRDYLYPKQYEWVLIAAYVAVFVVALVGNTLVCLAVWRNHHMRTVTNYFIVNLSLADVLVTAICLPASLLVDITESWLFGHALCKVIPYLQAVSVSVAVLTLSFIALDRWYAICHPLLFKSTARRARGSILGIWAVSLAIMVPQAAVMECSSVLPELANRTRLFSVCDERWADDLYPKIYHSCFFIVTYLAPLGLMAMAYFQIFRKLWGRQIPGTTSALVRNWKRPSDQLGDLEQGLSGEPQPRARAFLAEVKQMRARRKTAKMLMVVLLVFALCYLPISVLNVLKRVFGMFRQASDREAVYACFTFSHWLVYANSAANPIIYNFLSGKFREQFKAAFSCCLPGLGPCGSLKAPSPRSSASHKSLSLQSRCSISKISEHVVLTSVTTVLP

Ki | SMILES
Not Active | COc1ccc2c3c1O[C@@H]1C3[C@@](O)(CC[C@H]1N(C)C(=O)/C=C/c1ccoc1)[C@H](NCC1CC1)C2 (stereo partly specified)

same assay, conditions: read-out: Ki

SMILES | Ki [nM]
COc1ccc2c3c1O[C@@H]1C3[C@@H](CC[C@H]1N(C)C(=O)/C=C/c1ccoc1)[C@H](N(C)CC1CC1)C2 (stereo partly specified) | 50.1
COc1ccc2c3c1O[C@@H]1C3[C@@](O)(CC[C@H]1N(C)C(=O)/C=C/c1ccoc1)[C@H](N(CC1CC1)C(=O)c1ccccc1)C2 (stereo partly specified) | 275
COc1ccc2c3c1O[C@@H]1C3[C@]3(CC[C@H]1N(C)C(=O)/C=C/c1ccoc1)OC(=O)N(CC1CC1)[C@@H]3C2 (stereo partly specified) | 538
COc1ccc2c3c1O[C@@H]1C3[C@@](O)(CC[C@H]1N(C)C(=O)/C=C/c1ccoc1)[C@H](N(CC1CC1)C(=O)OC(C)(C)C)C2 (stereo partly specified) | 72.8

Now from value to molecule:

Ki [nM] | SMILES
1200 | COc1ccc2c3c1O[C@@H]1C3[C@]3(CC[C@H]1N(C)C(=O)/C=C/c1ccoc1)OS(=O)(=O)N(CC1CC1)[C@@H]3C2 (stereo partly specified)
1090 | COc1ccc2c3c1O[C@@H]1C3[C@@](O)(CC[C@H]1N(C)C(=O)/C=C/c1ccoc1)[C@H](N(CC1CC1)C(=O)C1CC1)C2 (stereo partly specified)
829 | COc1ccc2c3c1O[C@@H]1C3[C@@H](CC[C@H]1N(C)C(=O)/C=C/c1ccoc1)[C@H](N(C)S(=O)(=O)c1ccccc1)C2 (stereo partly specified)
392 | COc1ccc2c3c1O[C@@H]1C3[C@@H](CC[C@H]1N(C)C(=O)/C=C/c1ccoc1)[C@H](NCC1CC1)C2 (stereo partly specified)
14.8 | COc1ccc2c3c1O[C@@H]1C3[C@@H](CC[C@H]1N(C)C(=O)/C=C/c1ccoc1)[C@H](N(CC1CC1)C(=O)OC(C)(C)C)C2 (stereo partly specified)

target: T2, Orexin/Hypocretin receptor type 1 (Homo sapiens) (UniProt O43613); experiment: Antagonist activity at OX1R (unknown origin) assessed as inhibition of orexin A-induced intracellular Ca2+ release at 10 uM by cell-based assay relative to control; type: functional; details: not given
T2 sequence (whole entry): T1 sequence (O43613 whole entry)

inhibition [%] | SMILES
48 | COc1ccc2c3c1O[C@@H]1C3[C@@](O)(CC[C@H]1N(C)C(=O)/C=C/c1ccoc1)[C@H](N(CC1CC1)C(C)=O)C2 (stereo partly specified)
